Legend:
[1] = target: T1, human GR (Homo sapiens, UniProt P04150); assay: Transrepression Assay (GITAR), TNFα-β-lactamase reporter in U937 cells; type: cell-based; design: U937 cells contain an endogenous glucocorticoid receptor (GR); endogenous in cells; host or cells: U937 cells stably transfected with the TNF-alpha promoter/beta-lactamase reporter; settings: for GITAR > GRAMM % SEP: GITAR Emax minus GRAMMER Emax; for EC50: U937 cells, inflection point, read-out: Transrepression U937 Cells GITAR IP
T1 sequence (P04150 1-777): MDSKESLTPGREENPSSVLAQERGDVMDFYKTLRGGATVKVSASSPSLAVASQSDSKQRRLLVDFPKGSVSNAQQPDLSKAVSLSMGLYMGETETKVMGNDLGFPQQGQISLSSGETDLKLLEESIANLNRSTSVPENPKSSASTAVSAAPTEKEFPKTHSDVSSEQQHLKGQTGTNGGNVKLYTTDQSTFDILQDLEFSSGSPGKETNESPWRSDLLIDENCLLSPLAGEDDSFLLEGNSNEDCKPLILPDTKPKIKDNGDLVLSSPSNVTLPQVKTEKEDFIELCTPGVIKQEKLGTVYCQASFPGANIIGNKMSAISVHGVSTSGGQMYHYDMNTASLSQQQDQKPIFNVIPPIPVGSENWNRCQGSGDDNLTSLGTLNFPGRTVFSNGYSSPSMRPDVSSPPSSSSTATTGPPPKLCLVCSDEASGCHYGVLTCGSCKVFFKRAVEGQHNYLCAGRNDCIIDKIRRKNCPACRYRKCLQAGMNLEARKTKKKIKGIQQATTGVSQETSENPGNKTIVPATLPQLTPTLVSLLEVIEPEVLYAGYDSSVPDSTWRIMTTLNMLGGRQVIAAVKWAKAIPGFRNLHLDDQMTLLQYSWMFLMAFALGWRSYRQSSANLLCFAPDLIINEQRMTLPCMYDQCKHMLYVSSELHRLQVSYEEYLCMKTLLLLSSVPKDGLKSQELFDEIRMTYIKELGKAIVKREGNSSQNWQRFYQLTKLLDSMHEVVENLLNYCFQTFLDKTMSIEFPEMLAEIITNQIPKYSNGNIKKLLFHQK
In short: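 First, U937 reporter cells (TNF-α promoter–β-lactamase, native GR) received compound for 30–45 min at 37 °C. Next, PMA (5 ng/ml) and LPS (100 ng/ml) final were added for about 18 hr. Finally, CCF2-AM loading gave the read-out, with 100 nM dexamethasone as 100%.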

[2] = target: T1, human GR; assay: Trans-Activation Modulation of Glucocorticoid Receptor (GRAMMER), MMTV-LUC reporter, agonist mode; type: cell-based; design: endogenous in cells; settings: for Emax: A549, A549 cells, maximum activity, read-out: Transactivation A549 Cells GRAMMER Emax; for EC50: A549 cells, inflection point, read-out: Transactivation A549 Cells GRAMMER IP
In short: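 Readout is luciferase from a modified MMTV LTR promoter after 24 h compound exposure alongside 10 nM dexamethasone (100% activity reference), DMSO ≤1%.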

[3] = U-937, U937 cells, maximum activity, read-out: Transrepression U937 Cells GITAR Emax
[4] = U-937, activity repressed by 100 nM dexamethasone alone set as 100%, read-out: maximal activity in the transrepression (GITAR) assay

Row | Structure (SMILES) | GITAR > GRAMM % SEP [1] | EC50 [1] | Emax [1, 3] | Emax [1, 4] | Emax [2] | EC50 [2]
1 | Cc1noc(C)c1S(=O)(=O)N(CCc1ccccc1O)C[C@H]1CCC2=Cc3c(cnn3-c3ccc(F)cc3)C[C@@]21C [Example 123, N-{[(4αR,5S)-1-(4-fluorophenyl)-4α-methyl-1,4,4α,5,6,7-hexahydrocyclopenta[f]indazol-5-yl]methyl}-N-[2-(2-hydroxyphenyl)ethyl]-3,5-dimethylisoxazole-4-sulfonamide] | 25.4% | 128 nM | 90.8% | > 5% | 65.4% | 195 nM
2 | C[C@]12Cc3cnn(-c4ccc(F)cc4)c3C=C1CC[C@@H]2CN(CCc1ccccc1F)S(=O)(=O)Cc1cccnc1 [Example 124, N-[2-(2-fluorophenyl)ethyl]-N-{[(4αR,5S)-1-(4-fluorophenyl)-4α-methyl-1,4,4α,5,6,7-hexahydrocyclopenta[f]indazol-5-yl]methyl}-1-pyridin-3-ylmethanesulfonamide] | 1.3% | 251 nM | 100% | > 5% | 99.2% | 218 nM
3 | COc1ccccc1CCN(C[C@H]1CCC2=Cc3c(cnn3-c3ccc(F)cc3)C[C@@]21C)S(=O)(=O)Cc1cccnc1 [Example 125, N-{[(4αR,5S)-1-(4-fluorophenyl)-4α-methyl-1,4,4α,5,6,7-hexahydrocyclopenta[f]indazol-5-yl]methyl}-N-[2-(2-methoxyphenyl)ethyl]-1-pyridin-3-ylmethanesulfonamide] | 34.1% | 575 nM | 55.3% | > 5% | 21.2% | 508 nM
4 | COc1cccc(CCN(C[C@H]2CCC3=Cc4c(cnn4-c4ccc(F)cc4)C[C@@]32C)S(=O)(=O)CC(F)(F)F)c1 [Example 126, 2,2,2-trifluoro-N-{[(4αR,5S)-1-(4-fluorophenyl)-4α-methyl-1,4,4α,5,6,7-hexahydrocyclopenta[f]indazol-5-yl]methyl}-N-[2-(3-methoxyphenyl)ethyl]ethanesulfonamide] | 11.7% | 233 nM | 90% | > 5% | 78.2% | 227 nM
5 | COc1ccc(CCN(C[C@H]2CCC3=Cc4c(cnn4-c4ccc(F)cc4)C[C@@]32C)S(=O)(=O)CC(F)(F)F)cc1 [Example 127, 2,2,2-trifluoro-N-{[(4αR,5S)-1-(4-fluorophenyl)-4α-methyl-1,4,4α,5,6,7-hexahydrocyclopenta[f]indazol-5-yl]methyl}-N-[2-(4-methoxyphenyl)ethyl]ethanesulfonamide] | 15.1% | 202 nM | 83% | > 5% | 67.9% | 232 nM
6 | C[C@]12Cc3cnn(-c4ccc(F)cc4)c3C=C1CC[C@@H]2CN(CCc1ccccn1)S(=O)(=O)CC(F)(F)F [Example 128, 2,2,2-trifluoro-N-{[(4αR,5S)-1-(4-fluorophenyl)-4α-methyl-1,4,4α,5,6,7-hexahydrocyclopenta[f]indazol-5-yl]methyl}-N-(2-pyridin-2-ylethyl)ethanesulfonamide] | 19.3% | 324 nM | 88.4% | > 5% | 69.1% | 252 nM
7 | C[C@]12Cc3cnn(-c4ccc(F)cc4)c3C=C1CC[C@@H]2CN(CCc1ccncc1)S(=O)(=O)CC(F)(F)F [Example 129, 2,2,2-trifluoro-N-{[(4αR,5S)-1-(4-fluorophenyl)-4α-methyl-1,4,4α,5,6,7-hexahydrocyclopenta[f]indazol-5-yl]methyl}-N-(2-pyridin-4-ylethyl)ethanesulfonamide] | 11.9% | 623 nM | 79.1% | > 5% | 67.2% | 948 nM
8 | C[C@]12Cc3cnn(-c4ccc(F)cc4)c3C=C1CC[C@@H]2CN(CCc1ccc(O)cc1)S(=O)(=O)CC(F)(F)F [Example 130, 2,2,2-trifluoro-N-{[(4αR,5S)-1-(4-fluorophenyl)-4α-methyl-1,4,4α,5,6,7-hexahydrocyclopenta[f]indazol-5-yl]methyl}-N-[2-(4-hydroxyphenyl)ethyl]ethanesulfonamide] | 13.6% | 229 nM | 79.7% | > 5% | 66.1% | 369 nM
9 | C[C@]12Cc3cnn(-c4ccc(F)cc4)c3C=C1CC[C@@H]2CN(CCc1ccccc1O)S(=O)(=O)Cc1cccnc1 [Example 131, N-{[(4αR,5S)-1-(4-fluorophenyl)-4α-methyl-1,4,4α,5,6,7-hexahydrocyclopenta[f]indazol-5-yl]methyl}-N-[2-(2-hydroxyphenyl)ethyl]-1-pyridin-3-ylmethanesulfonamide] | 22.9% | 437 nM | 60.3% | > 5% | 37.4% | 571 nM
10 | C[C@]12Cc3cnn(-c4ccc(F)cc4)c3C=C1CC[C@@H]2CN(Cc1cccnn1)S(=O)(=O)CC(F)(F)F [Example 132, 2,2,2-trifluoro-N-{[(4αR,5S)-1-(4-fluorophenyl)-4α-methyl-1,4,4α,5,6,7-hexahydrocyclopenta[f]indazol-5-yl]methyl}-N-(pyridazin-3-ylmethyl)ethanesulfonamide] | 50.8% | 791 nM | 74% | > 5% | 23.2% | 422 nM

Next, values leading:

Row | GITAR > GRAMM % SEP [1] | EC50 [1] | Emax [1, 3] | Emax [1, 4] | Emax [2] | EC50 [2] | Structure (SMILES)
11 | 22.5% | 82.6 nM | 95.9% | > 5% | 73.4% | 67.5 nM | C[C@]12Cc3cnn(-c4ccc(F)cc4)c3C=C1CC[C@@H]2CN(CC(O)C(F)F)S(=O)(=O)CC(F)(F)F (stereo partly drawn) [Example 133, N-(3,3-difluoro-2-hydroxypropyl)-2,2,2-trifluoro-N-{[(4αR,5S)-1-(4-fluorophenyl)-4α-methyl-1,4,4α,5,6,7-hexahydrocyclopenta[f]indazol-5-yl]methyl}ethanesulfonamide]
12 | 4.7% | 243 nM | 93.8% | > 5% | 89.2% | 216 nM | C[C@]12Cc3cnn(-c4ccc(F)cc4)c3C=C1CC[C@@H]2CN(CC(OS(=O)(=O)CC(F)(F)F)C(F)F)S(=O)(=O)CC(F)(F)F (stereo partly drawn) [Example 134, 2,2-difluoro-1-({{[(4αR,5S)-1-(4-fluorophenyl)-4α-methyl-1,4,4α,5,6,7-hexahydrocyclopenta[f]indazol-5-yl]methyl}[(2,2,2-trifluoroethyl)sulfonyl]amino}methyl)ethyl 2,2,2-trifluoroethanesulfonate]
13 | 19.2% | 258 nM | 87.9% | > 5% | 68.8% | 127 nM | C[C@]12Cc3cnn(-c4ccc(F)cc4)c3C=C1CC[C@@H]2CN(CC1(O)CC1)S(=O)(=O)CC(F)(F)F [Example 135, 2,2,2-trifluoro-N-{[(4αR,5S)-1-(4-fluorophenyl)-4α-methyl-1,4,4α,5,6,7-hexahydrocyclopenta[f]indazol-5-yl]methyl}-N-[(1-hydroxycyclopropyl)methyl]ethanesulfonamide]
14 | 42.0% | 441 nM | 101% | > 5% | 58.8% | 279 nM | C[C@]12Cc3cnn(-c4ccc(F)cc4)c3C=C1CC[C@@H]2CN(CC1(OS(=O)(=O)CC(F)(F)F)CC1)S(=O)(=O)CC(F)(F)F [Example 136, 1-({{[(4αR,5S)-1-(4-fluorophenyl)-4α-methyl-1,4,4α,5,6,7-hexahydrocyclopenta[f]indazol-5-yl]methyl}[(2,2,2-trifluoroethyl)sulfonyl]amino}methyl)cyclopropyl 2,2,2-trifluoroethanesulfonate]
15 | 14.0% | 324 nM | 87.6% | > 5% | 73.6% | 143 nM | C[C@]12Cc3cnn(-c4ccccc4)c3C=C1CC[C@@H]2CN(CCc1ccccc1F)S(=O)(=O)CC(F)(F)F [Example 137, 2,2,2-trifluoro-N-[2-(2-fluorophenyl)ethyl]-N-{[(4αR,5S)-4α-methyl-1-phenyl-1,4,4α,5,6,7-hexahydrocyclopenta[f]indazol-5-yl]methyl}ethanesulfonamide]

From US8299048B2, “Hexahydrocyclopentyl[f]indazole sulfonamides and derivatives thereof as selective glucocorticoid receptor modulators” (Merck Sharp & Dohme Corp., priority 2008, dated 2012)
